Reference: patent US20260327235A1, “CRYSTAL FORM OF PYRIMIDO AZACYCLO COMPOUND, AND PREPARATION METHOD THEREFOR AND USE THEREO” (TYK MEDICINES, INC., priority 2023, published 2026)
In brackets after ≈: the same amount, converted by molar mass. Entries after “also recorded” stand apart in the source; their conditions may differ.

Assays:
[1] = Evaluation of amorphous free base: slurry in solvent, 2 days; format: physicochemical; settings: for Resulting crystal form: room temperature, 2 days
Description: 100 mg of the amorphous free base sample obtained in the present invention was weighed and a solvent was added to form a suspension. The mixture was stirred at room temperature for 2 days, and the results are as follows: […]

[2] = Rat pharmacokinetics after single oral administration; format: in vivo, SD rats; settings: for In vivo exposure level (in words): compared with free base crystal form I
[3] = Dog pharmacokinetics after single oral administration; format: in vivo, dogs; settings: compared with free base crystal form I
[4] = Pharmacokinetic studies in animals, summary statements; format: in vivo; settings: for In vivo exposure levels in animals (in words): summary; for Absorption (in words) / Bioavailability in vivo (in words) / Blood drug concentration distribution (in words) / Stability in vivo (in words): pharmacokinetic studies
[5] = Solid state stability study, 7 days; format: physicochemical; settings: for Purity: 10080 min; for Crystal stability (in words): 60 °C/closed and 40 °C/75% RH; for Initial purity: stability baseline; for Solid-state stability (in words): summary; for HPLC purity (area %) at 168 h: solid state
Description: (§1) HPLC analysis was performed using Agilent HPLC 1260 series instruments.

[6] = Rough solubility of free base crystal form I in solvents by visual inspection; format: physicochemical; settings: room temperature
[7] = Solubility test in biological media and water at 37 °C (HPLC); format: physicochemical; settings: for Solubility: calculated using free base
Description: as §1
The solubility of salt was calculated using free base.

[8] = gavage, 10 mpk, 0.5% MC + 1% tween 80, plasma, 10 mg/kg
[9] = FaSSIF (pH = 6.49), 0.5 h, 37 °C, LOQ ~1.0 μg/mL
[10] = FaSSIF (pH = 6.49), solution at 0.5 h
[11] = FaSSIF (pH = 6.49), solution at 2.0 h
[12] = FaSSIF (pH = 6.49), solution at 24 h
[13] = FeSSIF (pH = 5.00), solution at 0.5 h
[14] = FeSSIF (pH = 5.00), solution at 2.0 h
[15] = FeSSIF (pH = 5.00), solution at 24 h
[16] = SGF (pH = 1.19), solution at 0.5 h
[17] = SGF (pH = 1.19), solution at 2.0 h
[18] = SGF (pH = 1.19), solution at 24 h
[19] = Water (pH = 5.45), 0.5 h/2 h/24 h, 37 °C, LOQ ~1.0 μg/mL
[20] = Water (pH = 5.45), solution at 0.5 h
[21] = Water (pH = 5.45), solution at 2.0 h
[22] = Water (pH = 5.45), solution at 24 h

| Absorption (in words) [4] | Bioavailability in vivo (in words) [4] | Stability in vivo (in words) [4] | XRPD ([5]; 40 °C/75% RH, 7 days) | Purity ([5]; 40 °C/75% RH, 7 days) | XRPD ([5]; 60 °C/Closed, 7 days) | Purity ([5]; 60 °C/Closed, 7 days) | Crystal stability (in words) ([5]; 7 days) | Initial purity [5] | AUC0-last [2, 8] | AUCINF [2, 8] | Solubility [7, 9] | pH [7, 10] | pH [7, 11] | pH [7, 12] | pH [7, 13] | SMILES | In vivo exposure level (in words) [2] | In vivo exposure level (in words) [3] | In vivo exposure levels in animals (in words) [4] | Blood drug concentration distribution (in words) [4] | other results |
| --- | --- | --- | --- | --- | --- | --- | --- | --- | --- | --- | --- | --- | --- | --- | --- | --- | --- | --- | --- | --- | --- |
|  |  |  |  |  |  |  |  |  |  |  |  |  |  |  |  | CCn1ncc2c(Nc3cc(C)[nH]n3)nc([C@H]3CC[C@](OC)(C(=O)N[C@@H](C)c4cnc(-n5cc(F)cn5)cn4)CC3)nc21 [Amorphous free base] |  |  |  |  | Resulting crystal form ([1]; Acetone suspension): form III; Resulting crystal form ([1]; Methanol suspension): form I; Stability of amorphous sample (in words) ([1]; in the solvent): unstable and easily transformed into other crystal forms in the solvent |
| easy to absorb | high bioavailability | good stability in vivo | Unchanged | 99.253 Area % | Unchanged | 99.212 Area % | good | 99.316 Area % |  |  |  |  |  |  |  | CCn1ncc2c(Nc3cc(C)[nH]n3)nc([C@H]3CC[C@](OC)(C(=O)N[C@@H](C)c4cnc(-n5cc(F)cn5)cn4)CC3)nc21 [Free base crystal form III] | higher than those of free base crystal form I | higher than those of free base crystal form I | higher animal exposure levels compared to the free base crystal form I | good blood drug concentration distribution |  |
|  |  |  |  |  |  |  |  |  | 1172.00 ng·h/mL | 1197.00 ng·h/mL |  |  |  |  |  | CCn1ncc2c(Nc3cc(C)[nH]n3)nc([C@H]3CC[C@](OC)(C(=O)N[C@@H](C)c4cnc(-n5cc(F)cn5)cn4)CC3)nc21 [Free base crystal form I] |  |  |  |  | Cmax [2, 8]: 158.00 ng/mL; T1/2 [2, 8]: 2.69 h; Solubility ([6]; 2-Me-THF): 11.1 to 12.5 mg/mL; Solubility ([6]; Acetone): 7.1 to 8.3 mg/mL; Solubility ([6]; DCM): 4.6 to 5.0 mg/mL; Solubility ([6]; EA): 2.2 to 2.3 mg/mL; Solubility ([6]; IPAc): 1.5 to 1.6 mg/mL; Solubility ([6]; THF): 41.7 to 50.0 mg/mL; Solubility ([6]; organic solvent or mixture, ACN, read-out: Solubility): ~0.8 mg/mL (≈ 1.36 mM); Solubility in the remaining solvents (in words) ([6]; solvents other than DMSO and THF): poor solubility |
| easy to absorb | high bioavailability | good stability in vivo | Unchanged | 97.914 Area % | Unchanged | 98.119 Area % | good | 98.062 Area % |  |  | <LOQ^1 | 6.48 | 6.54 | 5.91 | 5.01 | CCn1ncc2c(Nc3cc(C)[nH]n3)nc([C@H]3CC[C@](OC)(C(=O)N[C@@H](C)c4cnc(-n5cc(F)cn5)cn4)CC3)nc21 [Fumarate crystal form I] | higher than those of free base crystal form I | higher than those of free base crystal form I | excellent in vivo exposure levels; also recorded: higher animal exposure levels compared to the free base crystal form I | good blood drug concentration distribution | pH [7, 14]: 5.03; pH [7, 15]: 4.93; pH [7, 16]: 1.17; pH [7, 17]: 1.22; pH [7, 18]: 1.27; Solubility [7, 19]: <LOQ; pH [7, 20]: 5.22; pH [7, 21]: 5.84; pH [7, 22]: 3.50; XRPD (24 h) ([7]; solid form after 24 h in FaSSIF (pH = 6.49)): amorphous; Chemical purity change (in words) ([5]; 40 °C/75% RH, 7 days): slightly decreases; Stability (in words) ([5]; closed high temperature condition (60 °C), 7 days): good; Solid-state stability (in words) [5]: good solid-state stability |
| easy to absorb | high bioavailability | good stability in vivo | Unchanged |  | Unchanged |  | good | 98.772 Area % | 1209.00 ng·h/mL | 1217.00 ng·h/mL | <LOQ | 6.45 | 6.30 | 5.61 | 4.95 | CCn1ncc2c(Nc3cc(C)[nH]n3)nc([C@H]3CC[C@](OC)(C(=O)N[C@@H](C)c4cnc(-n5cc(F)cn5)cn4)CC3)nc21 [Malate crystal form I] | higher than those of free base crystal form I | higher than those of free base crystal form I | excellent in vivo exposure levels; also recorded: higher animal exposure levels compared to the free base crystal form I | good blood drug concentration distribution | Solubility ([7]; FaSSIF (pH = 6.49), 24 h, 37 °C, LOQ ~1.0 μg/mL): <LOQ; pH [7, 14]: 4.96; pH [7, 15]: 4.90; Solubility ([7]; SGF (pH = 1.19), 0.5 h, 37 °C, 30 min): 204.753 µg/mL; Solubility ([7]; SGF (pH = 1.19), 24 h, 37 °C, 1440 min): 79.977 µg/mL; pH [7, 16]: 1.27; pH [7, 17]: 1.29; pH [7, 18]: 1.33; Maximum solubility ([7]; SGF medium, 0.5 hours, 37 °C, 30 min): 0.20 mg/mL; Solubility [7, 19]: <LOQ; pH [7, 20]: 4.76; pH [7, 21]: 4.19; pH [7, 22]: 3.88; XRPD (24 h) ([7]; solid form after 24 h in FeSSIF (pH = 5.00)): amorphous; HPLC purity (area %) at 168 h ([5]; 40 °C/75% RH, 7 days): 98.7%; HPLC purity (area %) at 168 h ([5]; 60 °C/Closed, 7 days): 98.8%; Solid-state stability (in words) [5]: good solid-state stability |
